Results published in patent US20240139216A1, “STABLE ORAL CANNABIDIOL COMPOSITIONS” (CARDIOL THERAPEUTICS INC., priority 2020, published 2024).

Columns and labels:
CB2 receptor = CB2 receptor (Homo sapiens, UniProt P34972); conditions: Proc Natl Acad Sci USA 2008; 105(26):9099-104; cited from earlier work
Solubility of CBD in BCP = type: physicochemical; conditions: in 1 mL of BCP
Experimental: For example, at least 300 mg of CBD can be dissolved in 1 mL of BCP. The enhanced stability of the CBD provides a composition with an acceptable shelf life and which can provide consistency in dosing and enhanced safety.

CB2 receptor, sequence (P34972 whole entry): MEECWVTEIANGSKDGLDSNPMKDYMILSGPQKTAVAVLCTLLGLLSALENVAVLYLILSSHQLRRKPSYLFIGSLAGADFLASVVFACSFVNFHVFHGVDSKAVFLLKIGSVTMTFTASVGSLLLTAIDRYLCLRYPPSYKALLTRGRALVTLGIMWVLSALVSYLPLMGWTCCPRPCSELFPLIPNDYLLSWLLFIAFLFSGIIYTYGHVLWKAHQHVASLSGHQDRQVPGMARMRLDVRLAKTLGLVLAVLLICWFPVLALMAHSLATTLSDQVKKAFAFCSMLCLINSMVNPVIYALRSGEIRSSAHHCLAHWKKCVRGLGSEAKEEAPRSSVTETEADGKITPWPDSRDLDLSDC

Structure (SMILES) | binding to the CB2 receptor (CB2 receptor) | functional activity at the CB2 receptor (CB2 receptor) | amount of CBD that can be dissolved in BCP (Solubility of CBD in BCP)
C=C1CC/C=C(\C)CC[C@@H]2[C@@H]1CC2(C)C (relative stereo) [β-caryophyllene, trans-(1R,9S)-8-Methylene-4,11,11-trimethylbicyclo[7.2.0]undec-4-ene] | selectively binds to the CB2 receptor | functional CB2 agonist | –
C=C(C)[C@@H]1CCC(C)=C[C@H]1c1c(O)cc(CCCCC)cc1O [CBD, cannabidiol] | – | – | at least 300 mg
